In the COVID Moonshot data (paper PMC7615835):
Values joined by “and” are separate entries in the source; they are usually repeats but may differ in a detail not shown here. Equal entries are not always repeated.

biological target: SARS-CoV-2 Main Protease (SARS-CoV-2) (UniProt P0DTD1)

Compound	IC50
C=CC(=O)NCC(=O)N(Cc1ccccc1)C[C@@]1(O)CN2CCC1CC2 (stereo in doubt)	> 99.5 µM
COC[C@]1(C(=O)Nc2cncc3ccccc23)CCOc2cc(Cl)c(Cl)cc21 (stereo in doubt)	2.38 µM and 4.36 µM
COc1cccc(N2CCN(C(=O)c3cc(=O)[nH]c4ccccc34)CC2)c1	7.55 µM
COc1cccc(C2=N/C(=C/c3sccc3C)C(=O)O2)c1	1.17 µM
Cc1ccncc1NC(=O)Cc1cc(Cl)cc(OCc2nnc(C3CCCCC3)o2)c1	20.6 µM
CC(C)(C)c1ccc(N(C(=O)c2ccns2)C(C(=O)NCCc2cccc(F)c2)c2cccnc2)cc1 (centres undefined)	51.1 µM
O=C(NCCc1cccc(F)c1)C(c1cccnc1)N(Cc1ccccc1)C(=O)c1ccco1 (centres undefined)	> 99.5 µM
CC(C)(C)OC(=O)CNC(=O)C(c1cccnc1)N(C(=O)c1cocn1)c1ccc(C(C)(C)C)cc1 (centres undefined)	8.18 µM
O=C(CN1CC(C(=O)Nc2cncc3cc(F)ccc23)c2cc(Cl)ccc2C1=O)NCC(F)(F)F (centres undefined)	0.879 µM
C=CC(=O)N(Cc1ccccc1Cl)C(C(=O)NC)c1cncc2ccccc12 (centres undefined)	> 99.5 µM
Cc1ccc(NC2=C(c3ccccc3)C(=O)N(Cc3cccnc3)C2=O)cc1Cl	> 99.5 µM
O=C(Cc1cc(Cl)cc(Nc2ncc(C(F)(F)F)cc2Cl)c1)Nc1cncc2ccccc12	1.7 µM
COC(=O)/C=C/C(=O)N(C(=O)[C@@H]1CCOc2ccc(Cl)cc21)c1cncc2ccccc12 (stereo in doubt)	0.5 µM
COc1ccc2c(NC(=O)Cc3cccc(Cl)c3)[nH]nc2c1	> 99.5 µM
C=CC(=O)N(c1ccc(C(C)(C)C)cc1)C(C(=O)NCC1CCCO1)c1cccnc1 (centres undefined)	90.5 µM
CN(C)c1ccc(N(Cc2ccsc2)C(=O)Cn2nnc3ccccc32)cc1	1.79 µM
CNC(=O)C1(N2CC3(CCN(c4cncc5cc(S(C)(=O)=O)ccc45)C3=O)c3cc(Cl)ccc3C2=O)CC1 (centres undefined)	0.265 µM
CNC(=O)CN1CC2(CC(=O)N(c3cncc4ccccc34)C2=O)c2cc(Cl)ccc2C1=O (centres undefined)	0.26 µM
COc1ccc2cncc(NC(=O)[C@@]3(OC)CCOc4ccc(Cl)cc43)c2c1 (stereo in doubt)	4.18 µM
CC(Cn1ccnc1C#N)c1cccc(Cl)c1 (centres undefined)	> 99.5 µM

Compound	IC50
O=C(CCl)N1CCN(C(c2ccccc2)c2ccccc2)CC1	1.98 µM
O=C(Cc1cc(Cl)cc(Nc2ccc([N+](=O)[O-])cc2C(F)(F)F)c1)Nc1cncc2ccccc12	2.01 µM
CC(C)(C)c1ccc(N(C(=O)c2ccco2)C(C(=O)NCCc2cccc(F)c2)c2coc3ccccc23)cc1 (centres undefined)	> 99.5 µM
O=C(Cc1cc(Cl)cc(Nc2ccc(OC(F)F)cc2)c1)Nc1cncc2ccccc12	1.9 µM
CN(C)c1ccc(N(Cc2ccn[nH]2)C(=O)Cn2nnc3ccccc32)cc1	15.9 µM
O=C(Cc1ccc(Cl)c(Cl)c1)Nc1cncc2ccncc12	1.79 µM
COc1nc(Br)cnc1Nc1cc(Cl)cc(CC(=O)Nc2cncc3ccccc23)c1	2.05 µM
O=C(Cc1cncnc1)Nc1cc(F)cc(OC2CC(=O)N2)c1 (centres undefined)	24.6 µM and 25.3 µM
COc1cc(Nc2cc(Cl)cc(CC(=O)Nc3cncc4ccccc34)c2)cc(OC)c1	1.96 µM
C=CC(=O)N(c1ccc(C(C)(C)C)cc1)C(C(=O)NCCc1cccc(F)c1)c1cncc(Cl)c1 (centres undefined)	11.5 µM
O=C(Cc1cccc(Cl)c1)Nn1nnc2ccccc21	5.8 µM
O=C(Nc1ccc2ccccc2c1)[C@@H]1CN(C(=O)CCl)CCN1S(=O)(=O)c1ccsc1 (stereo in doubt)	0.523 µM
CN1Cc2ccc(Cl)cc2C(C(=O)Nc2cncc3ccccc23)C1 (centres undefined)	2.01 µM
CC1(C(=O)Nc2cncc3ccccc23)CN(S(=O)(=O)CC2(C#N)CC2)Cc2ccc(Cl)cc21 (centres undefined)	0.096 µM
Cc1csc2ncc(C(=O)Nc3cccc4ncccc34)c(=O)n12	> 99.5 µM
CNC(=O)CN1Cc2ccc(Cl)cc2C2(CCN(c3cncc4c3CCCC4)C2=O)C1 (centres undefined)	0.258 µM
Cc1[nH]c2ccccc2c1/C=N/c1sc2c(c1C#N)CCC(C)C2 (centres undefined)	> 99.5 µM
O=C(Cc1cc(Cl)cc(Nc2cc(C(F)(F)F)ccn2)c1)Nc1cncc2ccccc12	1.84 µM
NC(=O)C12COC(CNC(=O)CC3(C(=O)Nc4cncc5ccccc45)CCOc4ccc(Cl)cc43)(C1)C2 (centres undefined)	9.05 µM
